Results on 25 compounds are retold here after patent US10435399B2, “HDAC6 inhibitory heterocyclic compound” (TAKEDA PHARMACEUTICAL COMPANY LIMITED, priority 2017, dated 2019).

The experiment concerns the target T1, HDAC6 enzyme (Homo sapiens, UniProt Q9UBN7).
T1 construct: transducing full length HDAC6 gene into Sf-9 insect cells; GST; purchased SignalChem; host or cells: Sf-9 insect cells
T1 sequence (Q9UBN7 1-1215): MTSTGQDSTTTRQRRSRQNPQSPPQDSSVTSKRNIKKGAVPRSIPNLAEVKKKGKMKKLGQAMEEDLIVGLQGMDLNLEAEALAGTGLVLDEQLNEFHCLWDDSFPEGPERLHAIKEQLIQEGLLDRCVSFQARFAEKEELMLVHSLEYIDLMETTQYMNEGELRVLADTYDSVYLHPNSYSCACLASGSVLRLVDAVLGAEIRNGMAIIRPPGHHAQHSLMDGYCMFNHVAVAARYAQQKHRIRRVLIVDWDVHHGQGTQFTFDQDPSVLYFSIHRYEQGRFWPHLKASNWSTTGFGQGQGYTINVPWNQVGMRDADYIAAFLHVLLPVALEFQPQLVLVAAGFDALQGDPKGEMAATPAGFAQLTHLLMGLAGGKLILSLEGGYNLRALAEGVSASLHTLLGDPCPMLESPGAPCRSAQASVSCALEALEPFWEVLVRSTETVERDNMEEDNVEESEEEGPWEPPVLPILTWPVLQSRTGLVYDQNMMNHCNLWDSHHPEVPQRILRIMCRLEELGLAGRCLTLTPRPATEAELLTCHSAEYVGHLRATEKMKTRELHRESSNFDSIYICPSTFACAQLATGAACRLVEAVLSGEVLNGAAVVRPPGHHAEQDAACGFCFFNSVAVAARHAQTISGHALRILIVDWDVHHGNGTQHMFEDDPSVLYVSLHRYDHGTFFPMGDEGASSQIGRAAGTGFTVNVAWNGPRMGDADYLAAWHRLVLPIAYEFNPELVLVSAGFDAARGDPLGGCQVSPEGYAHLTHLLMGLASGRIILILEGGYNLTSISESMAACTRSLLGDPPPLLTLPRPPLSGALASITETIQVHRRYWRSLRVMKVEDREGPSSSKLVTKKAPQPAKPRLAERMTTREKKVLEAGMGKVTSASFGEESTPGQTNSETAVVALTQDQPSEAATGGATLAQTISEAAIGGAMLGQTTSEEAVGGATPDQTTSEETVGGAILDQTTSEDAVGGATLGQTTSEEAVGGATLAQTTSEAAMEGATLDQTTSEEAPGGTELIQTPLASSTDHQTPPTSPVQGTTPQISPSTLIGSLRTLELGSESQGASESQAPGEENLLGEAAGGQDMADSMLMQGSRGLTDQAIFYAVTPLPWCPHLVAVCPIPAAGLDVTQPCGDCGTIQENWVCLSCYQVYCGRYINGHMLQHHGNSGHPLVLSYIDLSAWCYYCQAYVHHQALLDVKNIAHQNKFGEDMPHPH
In words: HDAC6 enzyme inhibitory activity (HDAC-Glo I/II Assay kit). The format is biochemical. To be noted: 10 μM; wells without enzyme = 100% inhibition; read-out: HDAC6 inhibitory rate (%) (10 μM). The method in brief: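 Luminescence read-out after 20 min reaction with HDAC-Glo substrate-developer, following 60 min room-temperature preincubation of compound with Sf-9-expressed, GST-purified full-length enzyme. Inhibition is relative to no-enzyme wells set as 100%.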
On to `O=C1OCCN1[C@@H]1CCCC[C@H]1N1Cc2c(F)cc(-c3nnc(C(F)F)o3)cc2C1=O` [Example 138, 6-(5-(difluoromethyl)-1,3,4-oxadiazol-2-yl)-4-fluoro-2-((1R,2R)-2-(2-oxo-1,3-oxazolidin-3-yl)cyclohexyl)isoindolin-1-one], for which the inhibition at 10 µM amounted to 98%.
As for `O=C1c2cc(-c3nnc(C(F)F)o3)cnc2CN1Cc1ccccc1` [Example 139, 6-benzyl-3-(5-(difluoromethyl)-1,3,4-oxadiazol-2-yl)-6,7-dihydro-5H-pyrrolo[3,4-b]pyridin-5-one], the figure is 100%; as for `C[C@H](c1ccc(F)cc1)N1Cc2ncc(-c3nnc(C(F)F)o3)cc2C1=O` [Example 140, 3-(5-(difluoromethyl)-1,3,4-oxadiazol-2-yl)-6-((1R)-1-(4-fluorophenyl)ethyl)-6,7-dihydro-5H-pyrrolo[3,4-b]pyridin-5-one], 100%; as for `C[C@@H](c1ccc(F)cc1)N1Cc2ncc(-c3nnc(C(F)F)o3)cc2C1=O` [Example 141, 3-(5-(difluoromethyl)-1,3,4-oxadiazol-2-yl)-6-((1S)-1-(4-fluorophenyl)ethyl)-6,7-dihydro-5H-pyrrolo[3,4-b]pyridin-5-one], 100%.
As for `O=C(N[C@@H]1CCCC[C@H]1N1C(=O)c2ccc(-c3nnc(C(F)F)o3)cc2C1=O)OCc1ccccc1` [Example 142, benzyl ((1R,2R)-2-(5-(5-(difluoromethyl)-1,3,4-oxadiazol-2-yl)-1,3-dioxo-1,3-dihydro-2H-isoindol-2-yl)cyclohexyl)carbamate], the figure is 99%; as for `O=C1c2cc(-c3nnc(C(F)F)o3)ccc2CN1Cc1ncccc1Cl` [Example 143, 2-((3-chloropyridin-2-yl)methyl)-6-(5-(difluoromethyl)-1,3,4-oxadiazol-2-yl)isoindolin-1-one], 95%.
As for `O=C1c2cc(-c3nnc(C(F)F)o3)ccc2CN1Cc1cncc(C(F)(F)F)c1` [Example 144, 6-(5-(difluoromethyl)-1,3,4-oxadiazol-2-yl)-2-((5-(trifluoromethyl)pyridin-3-yl)methyl)isoindolin-1-one], the figure is 97%; as for `CS(=O)(=O)c1cccc(CN2Cc3ccc(-c4nnc(C(F)F)o4)cc3C2=O)c1` [Example 145, 6-(5-(difluoromethyl)-1,3,4-oxadiazol-2-yl)-2-(3-(methylsulfonyl)benzyl)isoindolin-1-one], 100%; as for `O=C1c2cc(-c3nnc(C(F)F)o3)ccc2CN1Cc1cc(C2CC2)on1` [Example 146, 2-((5-cyclopropyl-1,2-oxazol-3-yl)methyl)-6-(5-(difluoromethyl)-1,3,4-oxadiazol-2-yl)isoindolin-1-one], 94%.
As for `O=C1c2cc(-c3nnc(C(F)F)o3)ccc2CN1Cc1ncc(F)cc1F` [Example 147, 6-(5-(difluoromethyl)-1,3,4-oxadiazol-2-yl)-2-((3,5-difluoropyridin-2-yl)methyl)isoindolin-1-one], the inhibition at 10 µM was determined as 93%.
As for `CC(C)(C)OC(=O)N[C@@H]1CCCC[C@H]1N1Cc2c(F)cc(-c3nnc(C(F)F)o3)cc2C1=O` [Example 148, tert-butyl ((1R,2R)-2-(6-(5-(difluoromethyl)-1,3,4-oxadiazol-2-yl)-4-fluoro-1-oxo-1,3-dihydro-2H-isoindol-2-yl)cyclohexyl)carbamate], the figure is 99%; as for `O=C1c2cc(-c3nnc(C(F)F)o3)cnc2CN1[C@@H]1CCCC[C@H]1NC(=O)C1(C(F)(F)F)CC1` [Example 149, N-((1R,2R)-2-(3-(5-(difluoromethyl)-1,3,4-oxadiazol-2-yl)-5-oxo-5,7-dihydro-6H-pyrrolo[3,4-b]pyridin-6-yl)cyclohexyl)-1-(trifluoromethyl)cyclopropanecarboxamide], 102%; as for `O=C(N[C@@H]1CCCC[C@H]1N1Cc2ncc(-c3nnc(C(F)F)o3)cc2C1=O)OC1CC1` [Example 150, cyclopropyl ((1R,2R)-2-(3-(5-(difluoromethyl)-1,3,4-oxadiazol-2-yl)-5-oxo-5,7-dihydro-6H-pyrrolo[3,4-b]pyridin-6-yl)cyclohexyl)carbamate], 97%.
As for `O=C1c2cc(-c3nnc(C(F)F)o3)ccc2CN1Cc1ccc(F)cc1` [Example 151, 6-(5-(difluoromethyl)-1,3,4-oxadiazol-2-yl)-2-(4-fluorobenzyl)isoindolin-1-one], the figure is 98%.
As to `CC(=O)N[C@@H]1CCCC[C@H]1N1Cc2c(F)cc(-c3nnc(C(F)F)o3)cc2C1=O` [Example 152, N-((1R,2R)-2-(6-(5-(difluoromethyl)-1,3,4-oxadiazol-2-yl)-4-fluoro-1-oxo-1,3-dihydro-2H-isoindol-2-yl)cyclohexyl)acetamide], the inhibition at 10 µM worked out at 99%.
As for `COC(=O)N[C@@H]1CCCC[C@H]1N1Cc2c(F)cc(-c3nnc(C(F)F)o3)cc2C1=O` [Example 153, methyl ((1R,2R)-2-(6-(5-(difluoromethyl)-1,3,4-oxadiazol-2-yl)-4-fluoro-1-oxo-1,3-dihydro-2H-isoindol-2-yl)cyclohexyl)carbamate], the figure is 100%.
As for `CNC(=O)O[C@@H]1CCCC[C@H]1N1Cc2ccc(-c3nnc(C(F)F)o3)cc2C1=O` [Example 154, (1R,2R)-2-(6-(5-(difluoromethyl)-1,3,4-oxadiazol-2-yl)-1-oxo-1,3-dihydro-2H-isoindol-2-yl)cyclohexyl methylcarbamate], the figure is 98%.
For `O=C1c2cc(-c3nnc(C(F)F)o3)cc(F)c2CN1Cc1ccccn1` [Example 155, 6-(5-(difluoromethyl)-1,3,4-oxadiazol-2-yl)-4-fluoro-2-(pyridin-2-ylmethyl)isoindolin-1-one], the inhibition at 10 µM worked out at 95%.
As for `COc1ccccc1-c1ccccc1N1Cc2ccc(-c3nnc(C(F)F)o3)cc2C1=O` [Example 156, 6-(5-(difluoromethyl)-1,3,4-oxadiazol-2-yl)-2-(2′-methoxybiphenyl-2-yl)isoindolin-1-one], the figure is 100%; as for `CN1CCN([C@@H]2CCCC[C@H]2N2Cc3ccc(-c4nnc(C(F)F)o4)cc3C2=O)C1=O` [Example 157, 6-(5-(difluoromethyl)-1,3,4-oxadiazol-2-yl)-2-((1R,2R)-2-(3-methyl-2-oxoimidazolidin-1-yl)cyclohexyl)isoindolin-1-one], 98%; as for `Cc1cc(-c2ccccc2N2Cc3ccc(-c4nnc(C(F)F)o4)cc3C2=O)n(C)n1` [Example 158, 6-(5-(difluoromethyl)-1,3,4-oxadiazol-2-yl)-2-(2-(1,3-dimethyl-1H-pyrazol-5-yl)phenyl)isoindolin-1-one], 100%.
As to `Cc1nn(C)cc1-c1ccccc1N1Cc2ccc(-c3nnc(C(F)F)o3)cc2C1=O` [Example 159, 6-(5-(difluoromethyl)-1,3,4-oxadiazol-2-yl)-2-(2-(1,3-dimethyl-1H-pyrazol-4-yl)phenyl)isoindolin-1-one], the inhibition at 10 µM is 100%.
As for `Cn1nccc1-c1ccccc1N1Cc2ccc(-c3nnc(C(F)F)o3)cc2C1=O` [Example 160, 6-(5-(difluoromethyl)-1,3,4-oxadiazol-2-yl)-2-(2-(1-methyl-1H-pyrazol-5-yl)phenyl)isoindolin-1-one], the figure is 101%.
As for `COC(=O)N[C@@H]1CCCC[C@H]1N1Cc2ncc(-c3nnc(C(F)F)o3)cc2C1=O` [Example 161, methyl ((1R,2R)-2-(3-(5-(difluoromethyl)-1,3,4-oxadiazol-2-yl)-5-oxo-5,7-dihydro-6H-pyrrolo[3,4-b]pyridin-6-yl)cyclohexyl)carbamate], the figure is 99%.
As for `CC(F)(F)C(=O)N[C@@H]1CCCC[C@H]1N1Cc2ncc(-c3nnc(C(F)F)o3)cc2C1=O` [Example 162, N-((1R,2R)-2-(3-(5-(difluoromethyl)-1,3,4-oxadiazol-2-yl)-5-oxo-5,7-dihydro-6H-pyrrolo[3,4-b]pyridin-6-yl)cyclohexyl)-2,2-difluoropropanamide], the figure is 97%.
